# Values quoted from earlier work in patent publication US6826488B1, “Crystals, molecular complexes, and methods of developing lead compounds for inhibitors of bacterial IMPDH” (The University of Chicago, priority 2000, dated 2004).
# How the values were obtained:
# [1] = test system: mammalian IMPDH enzymes; settings: mammalian relative to bacterial IMPDH enzymes
# [2] = target: bacterial IMPDH enzymes; settings: bacterial enzymes inhibited by MPA only at very high concentrations
compound,measurement,setting,value
"COc1c(C)c2c(c(O)c1C/C=C(\C)CCC(=O)O)C(=O)OC2 [MPA, Mycophenolic acid]",times more sensitive to inhibition (mammalian vs bacterial IMPDH enzymes),[1],10-100 times
same,Ki,[2],> 500 µM
